In PubChem BioAssay AID1963833 (Molecular Pharmacology Branch, DTP, NCI, 2024):

System: 883617-216-R-J1-PDC complex spheroid viability
Experiment: Anticancer human tumor 883617-216-R-J1-PDC patient-derived bladder carcinoma cell line growth inhibition [POLQ]
Settings: for IC50: curve of first compound; for viability, T/C: stronger effect = lower value
In short: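 Patient-derived tumour cells were co-cultured with HUVEC and mesenchymal stem cells as multicellular spheroids at 37 °C. They were treated with POLQ inhibitors (novobiocin, ART-558, RP6685) alone or combined with other agents. Top concentrations were at or near clinical Cmax (otherwise 10 microM; SN-38 at 1 microM), decreasing in half-log steps.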

[1] = second compound 0.0316 µM, first compound 0.0316 µM
[2] = second compound 0.0316 µM, first compound 0.1 µM
[3] = second compound 0.0316 µM, first compound 0.316 µM
[4] = second compound 0.0316 µM, first compound 1 µM
[5] = second compound 0.0316 µM, first compound 3.16 µM
[6] = second compound 0.0316 µM, first compound 10 µM
[7] = second compound 0.1 µM, first compound 0.0316 µM
[8] = second compound 0.1 µM, first compound 0.1 µM
[9] = second compound 0.1 µM, first compound 0.316 µM
[10] = second compound 0.1 µM, first compound 1 µM
[11] = second compound 0.1 µM, first compound 3.16 µM
[12] = second compound 0.1 µM, first compound 10 µM
[13] = second compound 0.316 µM, first compound 0.0316 µM
[14] = second compound 0.316 µM, first compound 0.1 µM
[15] = second compound 0.316 µM, first compound 0.316 µM
[16] = second compound 0.316 µM, first compound 1 µM
[17] = second compound 0.316 µM, first compound 3.16 µM
[18] = second compound 0.316 µM, first compound 10 µM
[19] = second compound 1 µM, first compound 0.0316 µM
[20] = second compound 1 µM, first compound 0.1 µM
[21] = second compound 1 µM, first compound 0.316 µM
[22] = second compound 1 µM, first compound 1 µM
[23] = second compound 1 µM, first compound 3.16 µM
[24] = second compound 1 µM, first compound 10 µM
[25] = second compound 3.16 µM, first compound 0.0316 µM
[26] = second compound 3.16 µM, first compound 0.1 µM
[27] = second compound 3.16 µM, first compound 0.316 µM
[28] = second compound 3.16 µM, first compound 1 µM
[29] = second compound 3.16 µM, first compound 3.16 µM
[30] = second compound 3.16 µM, first compound 10 µM
[31] = second compound 10 µM, first compound 0.0316 µM
[32] = second compound 10 µM, first compound 0.1 µM
[33] = second compound 10 µM, first compound 0.316 µM
[34] = second compound 10 µM, first compound 1 µM
[35] = second compound 10 µM, first compound 3.16 µM
[36] = second compound 10 µM, first compound 10 µM
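Further: spheroids exposed to compounds for seven days before readout.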
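Wherever viability, T/C is given: 100% = DMSO vehicle control viability.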

C=CC(=O)N1CCN(c2nc(=O)n(-c3c(C)ccnc3C(C)C)c3nc(-c4c(O)cccc4F)c(F)cc23)C(C)C1 (centres undefined) + COC1C(OC(N)=O)C(O)C(Oc2ccc3c(O)c(NC(=O)c4ccc(O)c(CC=C(C)C)c4)c(=O)oc3c2C)OC1(C)C
IC50 (second compound 0.0316 µM): > 10 µM
IC50 (second compound 0.1 µM): > 10 µM
IC50 (second compound 0.316 µM): > 10 µM
IC50 (second compound 1 µM): > 10 µM
IC50 (second compound 3.16 µM): > 10 µM
IC50 (second compound 10 µM): > 10 µM
viability, T/C [1]: 79.2%
viability, T/C [2]: 77.5%
viability, T/C [3]: 70.8%
viability, T/C [4]: 98.3%
viability, T/C [5]: 81.7%
viability, T/C [6]: 87.6%
viability, T/C [7]: 72.5%
viability, T/C [8]: 68.2%
viability, T/C [9]: 67.3%
viability, T/C [10]: 81.8%
viability, T/C [11]: 102%
viability, T/C [12]: 80.5%
viability, T/C [13]: 70.2%
viability, T/C [14]: 78.7%
viability, T/C [15]: 68.5%
viability, T/C [16]: 73.7%
viability, T/C [17]: 85.5%
viability, T/C [18]: 75.9%
viability, T/C [19]: 81.8%
viability, T/C [20]: 65.9%
viability, T/C [21]: 73.2%
viability, T/C [22]: 78.2%
viability, T/C [23]: 89.9%
viability, T/C [24]: 76.5%
viability, T/C [25]: 78.3%
viability, T/C [26]: 62.4%
viability, T/C [27]: 79.3%
viability, T/C [28]: 69.5%
viability, T/C [29]: 79%
viability, T/C [30]: 76.8%
viability, T/C [31]: 68%
viability, T/C [32]: 60.6%
viability, T/C [33]: 76.5%
viability, T/C [34]: 85.5%
viability, T/C [35]: 84.2%
viability, T/C [36]: 91.4%

CC(C)n1c(=O)n(C)c2cnc3cc(F)c(-c4ccc(OCCCN5CCCCC5)nc4)cc3c21 + COC1C(OC(N)=O)C(O)C(Oc2ccc3c(O)c(NC(=O)c4ccc(O)c(CC=C(C)C)c4)c(=O)oc3c2C)OC1(C)C
IC50 (second compound 0.0316 µM): > 10 µM
IC50 (second compound 0.1 µM): > 10 µM
IC50 (second compound 0.316 µM): > 10 µM
IC50 (second compound 1 µM): > 10 µM
IC50 (second compound 3.16 µM): > 10 µM
IC50 (second compound 10 µM): > 10 µM
viability, T/C [1]: 92.2%
viability, T/C [2]: 94.5%
viability, T/C [3]: 97.4%
viability, T/C [4]: 93.1%
viability, T/C [5]: 88.2%
viability, T/C [6]: 65.1%
viability, T/C [7]: 99%
viability, T/C [8]: 103%
viability, T/C [9]: 93.9%
viability, T/C [10]: 104%
viability, T/C [11]: 91.8%
viability, T/C [12]: 82.6%
viability, T/C [13]: 97%
viability, T/C [14]: 92.2%
viability, T/C [15]: 97.3%
viability, T/C [16]: 101%
viability, T/C [17]: 97%
viability, T/C [18]: 76.3%
viability, T/C [19]: 102%
viability, T/C [20]: 103%
viability, T/C [21]: 108%
viability, T/C [22]: 91.2%
viability, T/C [23]: 94.1%
viability, T/C [24]: 84.5%
viability, T/C [25]: 109%
viability, T/C [26]: 108%
viability, T/C [27]: 110%
viability, T/C [28]: 95.7%
viability, T/C [29]: 95.9%
viability, T/C [30]: 81%
viability, T/C [31]: 106%
viability, T/C [32]: 97.3%
viability, T/C [33]: 102%
viability, T/C [34]: 98.3%
viability, T/C [35]: 78.9%
viability, T/C [36]: 72.8%
